Patent US20060116390A1, “Hepatitis c virus inhibitors” (priority 2003, published 2006)
Like-named read-outs stand apart in the source and are kept apart here.

Tested on: HCV proteins in Rep5.1 cells (replicon cell line)
Assay: Inhibitory activity of HCV: cell-based ELISA in replicon cell line Rep5.1 (decrease of HCV proteins)
Design: species or system hepatitis C virus
Settings: Rep5.1 cells, 72 hours with drug
Outline: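 HCV protein loss was quantified by ELISA on methanol/acetone-fixed cells 72 h after drug addition, probing with selected HCV-positive human plasma, and IC50 was defined as 50% reduction relative to untreated wells. The cells were Rep5.1 replicon cells cultured in DMEM-10 with 500 μg/ml G418, plated at 5000 per well and dosed with serial dilutions after 4 h attachment.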

[1] = Hepatitis C virus, 72 h, concentration at which 50% of HCV proteins was decreased, Table 2, read-out: IC50
[2] = Hepatitis C virus, 72 h, decrease of HCV proteins measured by HCV antibody, Table 1, read-out: Level (IC50 values classified)
[3] = concentration at which 50% of HCV proteins was decreased, Table 2, read-out: IC50

SMILES | IC50 [1] [nM] | IC50 [2] [nM] | IC50 [3] [nM]
CC1=C(C(=O)OC2Cc3cscc3C2)CNC(=S)N1 [11′, 6-methyl-2-thioxo-1,2,3,4-tetrahydro-pyrimidine-5-carboxylic acid 5,6-dihydro-4H-cyclopenta[c]thiophen-5-yl ester] | 77000 | > 20000 | –
C#CCCOC(=O)C1=C(C)NC(=S)NC1 [Compound 129, 6-methyl-2-thioxo-1,2,3,4-tetrahydro-pyrimidine-5-carboxylic acid but-3-inyl ester] | – | – | > 100000
CC1=C(C(=O)OCc2cccc(C#N)c2)CNC(=S)N1 [Compound 48, 6-methyl-2-thioxo-1,2,3,4-tetrahydro-pyrimidine-5-carboxylic acid 3-cyano-benzyl ester] | 30000 | 10000 to 20000 | –
CC1=C(C(=O)OCc2ccc(F)cc2Cl)C(CF)NC(=S)N1 (centres unmarked) [79′, 4-fluoromethyl-6-methyl-2-thioxo-1,2,3,4-tetrahydro-pyrimidine-5-carboxylic acid 2-chloro-4-fluoro-benzyl ester] | 1000 | < 1000 | –
CC1=C(C(=O)OCc2ccc(Br)s2)CNC(=S)N1 [Compound 203, 6-methyl-2-thioxo-1,2,3,4-tetrahydro-pyrimidine-5-carboxylic acid 5-bromo-thiophen-2-ylmethyl ester] | < 400 | < 1000 | –
CCc1ccc(COC(=O)C2=C(C)NC(=S)NC2)o1 [Compound 264, 6-methyl-2-thioxo-1,2,3,4-tetrahydro-pyrimidine-5-carboxylic acid 5-ethyl-furan-2-ylmethyl ester] | 13000 | 10000 to 20000 | –
CC1=C(C(=O)OCCc2cccc(Cl)c2)CNC(=S)N1 [Compound 117, 6-methyl-2-thioxo-1,2,3,4-tetrahydro-pyrimidine-5-carboxylic acid 2-(3-chloro-phenyl)-ethyl ester] | 400 | < 1000 | –
CCOC(=O)COC(=O)OCC1NC(=S)NC(C)=C1C(=O)OCCc1cccc([N+](=O)[O-])c1 (centres unmarked) [83″, 4-ethoxycarbonylmethoxycarbonyloxymethyl-6-methyl-2-thioxo-1,2,3,4-tetrahydro-pyrimidine-5-carboxylic acid 2-(3-nitro-phenyl)-ethyl ester] | 6100 | 1000 to 10000 | –
C#CCOC(=O)C1=C(C)NC(=S)NC1 [Compound 159, 6-methyl-2-thioxo-1,2,3,4-tetrahydro-pyrimidine-5-carboxylic acid prop-2-inyl ester] | – | – | > 100000
CC1=C(C(=O)OCc2ccc(C)s2)CNC(=S)N1 [Compound 232, 6-methyl-2-thioxo-1,2,3,4-tetrahydro-pyrimidine-5-carboxylic acid 5-methyl-thiophen-2-ylmethyl ester] | 20000 | 10000 to 20000 | –
CC1=C(C(=O)OCc2cccc(OCc3ccccc3)c2)CNC(=S)N1 [Compound 50, 6-methyl-2-thioxo-1,2,3,4-tetrahydro-pyrimidine-5-carboxylic acid 3-benzyloxy-benzyl ester] | < 500 | < 1000 | –
COc1ccc(COc2ccc(COC(=O)C3=C(C)NC(=S)NC3)cc2)cc1 [Compound 227, 6-methyl-2-thioxo-1,2,3,4-tetrahydro-pyrimidine-5-carboxylic acid 4-(4-methoxy-benzyloxy)-benzyl ester] | < 400 | < 1000 | –
CCc1ccc(COC(=O)C2=C(C)NC(=S)NC2)s1 [Compound 205, 6-methyl-2-thioxo-1,2,3,4-tetrahydro-pyrimidine-5-carboxylic acid 5-ethyl-thiophen-2-ylmethyl ester] | 1800 | 1000 to 10000 | –
CC1=C(C(=O)OCCc2ccc(C)c(Cl)c2)C(CO)NC(=S)N1 (centres unmarked) [74″, 4-hydroxymethyl-6-methyl-2-thioxo-1,2,3,4-tetrahydro-pyrimidine-5-carboxylic acid 2-(3-chloro-4-methyl-phenyl)-ethyl ester] | < 400 | < 1000 | –
CC1=C(C(=O)OCc2ccc(C(C)(C)C)cc2)CNC(=S)N1 [Compound 45, 6-methyl-2-thioxo-1,2,3,4-tetrahydro-pyrimidine-5-carboxylic acid 4-t-butyl-benzyl ester] | < 400 | < 1000 | –
COc1c(C)cc(COC(=O)C2=C(C)NC(=S)NC2)cc1C [Compound 180, 6-methyl-2-thioxo-1,2,3,4-tetrahydro-pyrimidine-5-carboxylic acid 4-methoxy-3,5-dimethyl-benzyl ester] | 800 | < 1000 | –
CC1=C(C(=O)OCCc2cc3c(C)snc3s2)CNC(=S)N1 [5′, 6-methyl-2-thioxo-1,2,3,4-tetrahydro-pyrimidine-5-carboxylic acid 2-(3-methyl-thieno[2,3-c]isothiazol-5-yl)-ethyl ester] | 2500 | 1000 to 10000 | –

SMILES | IC50 [1] [nM] | IC50 [2] [nM] | IC50 [3] [nM]
CC1=C(C(=O)OCCCc2sccc2C)C(CO)NC(=S)N1 (centres unmarked) [17″, 4-hydroxymethyl-6-methyl-2-thioxo-1,2,3,4-tetrahydro-pyrimidine-5-carboxylic acid 3-(3-methyl-thiophen-2-yl)-propyl ester] | 9000 | 1000 to 10000 | –
CC1=C(C(=O)OCc2cc(Cl)ccc2[N+](=O)[O-])C(CF)NC(=S)N1 (centres unmarked) [78′, 4-fluoromethyl-6-methyl-2-thioxo-1,2,3,4-tetrahydro-pyrimidine-5-carboxylic acid 5-chloro-2-nitro-benzyl ester] | 11000 | 10000 to 20000 | –
CC1=C(C(=O)OCCCCCCCCCC(=O)O)CNC(=S)N1 [20′, 6-methyl-2-thioxo-1,2,3,4-tetrahydro-pyrimidine-5-carboxylic acid 9-carboxy-nonyl ester] | 27000 | > 20000 | –
CCN(CC)c1ccc(CCOC(=O)C2=C(C)NC(=S)NC2CO)cc1[N+](=O)[O-] (centres unmarked) [91″, 4-Hydroxymethyl-6-methyl-2-thioxo-1,2,3,4-tetrahydro-pyrimidine-5-carboxylic acid 2-(4-diethylamino-3-nitro-phenyl)-ethyl ester] | 700 | < 1000 | –
CC1=C(C(=O)OCc2cc3ccccc3s2)CNC(=S)N1 [Compound 219, 6-methyl-2-thioxo-1,2,3,4-tetrahydro-pyrimidine-5-carboxylic acid benzo[b]thiophen-2-ylmethyl ester] | < 400 | < 1000 | –
CSc1ccccc1COC(=O)C1=C(C)NC(=S)NC1 [Compound 110, 6-methyl-2-thioxo-1,2,3,4-tetrahydro-pyrimidine-5-carboxylic acid 2-methylsulfanyl-benzyl ester] | 17000 | 1000 to 10000 | –
CC1=C(C(=O)OCCc2ccc(C)cc2)CNC(=S)N1 [Compound 173, 6-methyl-2-thioxo-1,2,3,4-tetrahydro-pyrimidine-5-carboxylic acid 2-p-tolyl-ethyl ester] | < 400 | – | –
CC1=C(C(=O)OCc2cccc(F)c2)CNC(=S)N1 [Compound 83, 6-methyl-2-thioxo-1,2,3,4-tetrahydro-pyrimidine-5-carboxylic acid 3-fluoro-benzyl ester] | 1000 | < 1000 | –
CC1=C(C(=O)OCC2(c3ccc(Cl)cc3)CC2)C(CO)NC(=S)N1 (centres unmarked) [52″, 4-hydroxymethyl-6-methyl-2-thioxo-1,2,3,4-tetrahydro-pyrimidine-5-carboxylic acid 1-(4-chloro-phenyl)-cyclopropylmethyl ester] | 10000 | 1000 to 10000 | –
C=CCN(CC)c1ccc(CCOC(=O)C2=C(C)NC(=S)NC2CO)cc1[N+](=O)[O-] (centres unmarked) [97″, 4-Hydroxymethyl-6-methyl-2-thioxo-1,2,3,4-tetrahydro-pyrimidine-5-carboxylic acid 2-[4-(allyl-ethyl-amino)-3-nitro-phenyl]-ethyl ester] | 600 | < 1000 | –
CC1=C(C(=O)OCc2ccc(OC(=O)OC(C)(C)C)cc2)CNC(=S)N1 [Compound 228, 6-methyl-2-thioxo-1,2,3,4-tetrahydro-pyrimidine-5-carboxylic acid 4-t-butoxycarbonyloxy-benzyl ester] | 23000 | 10000 to 20000 | –
O=C(OCCCc1cccs1)C1=CNC(=S)NC1CF (centres unmarked) [16′, 4-fluoromethyl-2-thioxo-1,2,3,4-tetrahydro-pyrimidine-5-carboxylic acid 3-thiophen-2-yl-propyl ester] | 2000 | 1000 to 10000 | –
CC1=C(C(=O)OCc2cccc(Cl)c2)CNC(=S)N1 [Compound 91, 6-methyl-2-thioxo-1,2,3,4-tetrahydro-pyrimidine-5-carboxylic acid 3-chloro-benzyl ester] | < 400 | < 1000 | –
CCOc1ccccc1COC(=O)C1=C(C)NC(=S)NC1CF (centres unmarked) [Compound 263, 4-fluoromethyl-6-methyl-2-thioxo-1,2,3,4-tetrahydro-pyrimidine-5-carboxylic acid 2-ethoxy-benzyl ester] | 1700 | < 1000 | –
O=C(OCc1ccccc1)C1=C(CCc2ccccc2)NC(=S)NC1 [Compound 19, 6-phenethyl-2-thioxo-1,2,3,4-tetrahydro-pyrimidine-5-carboxylic acid benzyl ester] | 1600 | < 1000 | –
CC1=C(C(=O)OCc2cc(F)c(F)c(F)c2)C(CF)NC(=S)N1 (centres unmarked) [91′, 4-fluoromethyl-6-methyl-2-thioxo-1,2,3,4-tetrahydro-pyrimidine-5-carboxylic acid 3,4,5-trifluoro-benzyl ester] | 1600 | 1000 to 10000 | –
CC(=O)OCC1NC(=S)NC(C)=C1C(=O)OCCc1ccsc1 (centres unmarked) [21″, 4-acetoxymethyl-6-methyl-2-thioxo-1,2,3,4-tetrahydro-pyrimidine-5-carboxylic acid 2-thiophen-3-yl-ethyl ester] | > 100000 | > 20000 | –
